In ChEMBL document CHEMBL2440073, “Antimalarial activity of compounds comprising a primary benzene sulfonamide fragment” (Bioorg Med Chem Lett, 2013):

What was measured:
NFF = experiment: Cytotoxicity against human NFF cells after 3 days by SRB assay; type: cell-based; details: 72 h
Plasmodium falciparum [1] = experiment: Antimalarial activity against ring stage of chloroquine-sensitive Plasmodium falciparum 3D7 infected in erythrocytes assessed as [3H]-hypoxanthine incorporation after 48 hrs by liquid scintillation counting analysis; type: functional, organism-based
Plasmodium falciparum [2] = experiment: Antimalarial activity against ring stage of chloroquine-resistant Plasmodium falciparum Dd2 infected in erythrocytes assessed as [3H]-hypoxanthine incorporation after 48 hrs by liquid scintillation counting analysis; type: functional, organism-based
[3] = Selectivity index, ratio of IC50 for human NFF cells to IC50 for Plasmodium falciparum; type: toxicity, cell-based; details: NFF cells (versus Plasmodium falciparum), read-out: Ratio IC50

CC(=O)OC[C@H]1O[C@@H](OCc2nnn(-c3ccc(S(N)(=O)=O)cc3)c2I)[C@H](OC(C)=O)[C@@H](OC(C)=O)[C@@H]1OC(C)=O
IC50 (NFF): > 100 µM
IC50 (Plasmodium falciparum [1]): 2.8 µM
IC50 (Plasmodium falciparum [2]): 2.6 µM

CC(=O)OC[C@H]1O[C@@H](S(=O)(=O)Cc2cn(-c3ccccc3)nn2)[C@H](OC(C)=O)[C@@H](OC(C)=O)[C@@H]1OC(C)=O
IC50 (Plasmodium falciparum [1]): > 50 µM
IC50 (Plasmodium falciparum [2]): > 50 µM

CC(=O)OC[C@H]1O[C@@H](SCc2nnn(-c3ccccc3)c2I)[C@H](OC(C)=O)[C@@H](OC(C)=O)[C@@H]1OC(C)=O
IC50 (Plasmodium falciparum [1]): 4.6 µM
IC50 (Plasmodium falciparum [2]): 4.8 µM

NS(=O)(=O)c1ccc(-n2nnc(CS(=O)(=O)[C@@H]3O[C@H](CO)[C@@H](O)[C@H](O)[C@H]3O)c2I)cc1
IC50 (Plasmodium falciparum [1]): 28.6 µM
IC50 (Plasmodium falciparum [2]): > 50 µM

CC(=O)OC[C@H]1O[C@@H](SCc2nnn(-c3ccc(S(N)(=O)=O)cc3)c2I)[C@H](OC(C)=O)[C@@H](OC(C)=O)[C@@H]1OC(C)=O
IC50 (NFF): 51.1 µM
IC50 (Plasmodium falciparum [1]): 0.9 µM
selectivity ratio [3]: ≥ 40
IC50 (Plasmodium falciparum [2]): 1.3 µM

CC(=O)OC[C@H]1O[C@@H](S(=O)(=O)Cc2nnn(-c3ccc(S(N)(=O)=O)cc3)c2I)[C@H](OC(C)=O)[C@@H](OC(C)=O)[C@@H]1O[C@H]1O[C@H](COC(C)=O)[C@@H](OC(C)=O)[C@H](OC(C)=O)[C@H]1OC(C)=O
IC50 (NFF): > 100 µM
IC50 (Plasmodium falciparum [1]): 2.3 µM
IC50 (Plasmodium falciparum [2]): 2.4 µM

OC[C@H]1O[C@@H](SCc2cn(-c3ccccc3)nn2)[C@H](O)[C@@H](O)[C@@H]1O
IC50 (Plasmodium falciparum [1]): > 50 µM
IC50 (Plasmodium falciparum [2]): > 50 µM

CC(=O)OC[C@H]1O[C@@H](SCc2nnn(-c3ccc(S(N)(=O)=O)cc3)c2I)[C@H](OC(C)=O)[C@@H](OC(C)=O)[C@H]1OC(C)=O
IC50 (NFF): > 100 µM
IC50 (Plasmodium falciparum [1]): 1.4 µM
IC50 (Plasmodium falciparum [2]): 4.1 µM

CC(=O)OC[C@H]1O[C@@H](OCc2nnn(-c3ccccc3)c2I)[C@H](OC(C)=O)[C@@H](OC(C)=O)[C@@H]1OC(C)=O
IC50 (Plasmodium falciparum [1]): 10.6 µM
IC50 (Plasmodium falciparum [2]): 9.4 µM

CC(=O)OC[C@H]1O[C@@H](S(=O)(=O)Cc2nnn(-c3ccc(S(N)(=O)=O)cc3)c2I)[C@H](OC(C)=O)[C@@H](OC(C)=O)[C@@H]1OC(C)=O
IC50 (NFF): > 100 µM
IC50 (Plasmodium falciparum [1]): 5.3 µM
IC50 (Plasmodium falciparum [2]): 7.8 µM

NS(=O)(=O)c1ccc(-n2cc(CS[C@@H]3O[C@H](CO)[C@@H](O)[C@H](O)[C@H]3O)nn2)cc1
IC50 (Plasmodium falciparum [1]): > 50 µM
IC50 (Plasmodium falciparum [2]): > 50 µM

CC(=O)OC[C@H]1O[C@@H](S(=O)(=O)Cc2nnn(-c3ccccc3)c2I)[C@H](OC(C)=O)[C@@H](OC(C)=O)[C@@H]1OC(C)=O
IC50 (Plasmodium falciparum [1]): 4.7 µM
IC50 (Plasmodium falciparum [2]): 3.4 µM

CCN(CC)CCCC(C)Nc1ccnc2cc(Cl)ccc12 (stereo not drawn) [CHLOROQUINE]
IC50 (NFF): > 1000 µM

O=S(=O)(Cc1cn(-c2ccccc2)nn1)[C@@H]1O[C@H](CO)[C@@H](O)[C@H](O)[C@H]1O
IC50 (Plasmodium falciparum [1]): > 50 µM
IC50 (Plasmodium falciparum [2]): > 50 µM

COC(=O)[C@H]1O[C@@H](SCc2nnn(-c3ccc(S(N)(=O)=O)cc3)c2I)[C@H](OC(C)=O)[C@@H](OC(C)=O)[C@@H]1OC(C)=O
IC50 (NFF): > 100 µM
IC50 (Plasmodium falciparum [1]): 2.1 µM
IC50 (Plasmodium falciparum [2]): 6 µM

CC(=O)OC[C@H]1O[C@@H](SCc2cn(-c3ccc(S(N)(=O)=O)cc3)nn2)[C@H](OC(C)=O)[C@@H](OC(C)=O)[C@@H]1OC(C)=O
IC50 (Plasmodium falciparum [1]): 31 µM
IC50 (Plasmodium falciparum [2]): > 25 µM

CC(=O)OC[C@H]1O[C@@H](S(=O)(=O)Cc2cn(-c3ccc(S(N)(=O)=O)cc3)nn2)[C@H](OC(C)=O)[C@@H](OC(C)=O)[C@@H]1OC(C)=O
IC50 (Plasmodium falciparum [1]): > 50 µM
IC50 (Plasmodium falciparum [2]): > 50 µM

NS(=O)(=O)c1ccc(-n2nnc(CS[C@@H]3O[C@H](CO)[C@@H](O)[C@H](O)[C@H]3O)c2I)cc1
IC50 (NFF): > 100 µM
IC50 (Plasmodium falciparum [1]): 1 µM
selectivity ratio [3]: ≥ 40
IC50 (Plasmodium falciparum [2]): 1.9 µM

CC(=O)OC[C@H]1O[C@@H](OCc2cn(-c3ccccc3)nn2)[C@H](OC(C)=O)[C@@H](OC(C)=O)[C@@H]1OC(C)=O
IC50 (Plasmodium falciparum [1]): > 50 µM
IC50 (Plasmodium falciparum [2]): > 50 µM

CC(=O)OC[C@H]1O[C@@H](S(=O)(=O)Cc2cn(-c3ccc(S(N)(=O)=O)cc3)nn2)[C@H](OC(C)=O)[C@@H](OC(C)=O)[C@@H]1O[C@H]1O[C@H](COC(C)=O)[C@@H](OC(C)=O)[C@H](OC(C)=O)[C@H]1OC(C)=O
IC50 (Plasmodium falciparum [1]): 20.7 µM
IC50 (Plasmodium falciparum [2]): 14.7 µM

CC(=O)OC[C@H]1O[C@@H](SCc2cn(-c3ccccc3)nn2)[C@H](OC(C)=O)[C@@H](OC(C)=O)[C@@H]1OC(C)=O
IC50 (Plasmodium falciparum [1]): > 50 µM
IC50 (Plasmodium falciparum [2]): > 50 µM

NS(=O)(=O)c1ccc(-n2cc(CS(=O)(=O)[C@@H]3O[C@H](CO)[C@@H](O)[C@H](O)[C@H]3O)nn2)cc1
IC50 (Plasmodium falciparum [1]): > 50 µM
IC50 (Plasmodium falciparum [2]): > 50 µM

O=S(=O)(Cc1nnn(-c2ccccc2)c1I)[C@@H]1O[C@H](CO)[C@@H](O)[C@H](O)[C@H]1O
IC50 (Plasmodium falciparum [1]): 3.8 µM
IC50 (Plasmodium falciparum [2]): 3.4 µM

OC[C@H]1O[C@@H](SCc2nnn(-c3ccccc3)c2I)[C@H](O)[C@@H](O)[C@@H]1O
IC50 (Plasmodium falciparum [1]): 4.9 µM
IC50 (Plasmodium falciparum [2]): 4.4 µM

CC(=O)OC[C@H]1O[C@@H](OCc2cn(-c3ccc(S(N)(=O)=O)cc3)nn2)[C@H](OC(C)=O)[C@@H](OC(C)=O)[C@@H]1OC(C)=O
IC50 (Plasmodium falciparum [1]): 9.7 µM
IC50 (Plasmodium falciparum [2]): 11.7 µM
